Read-outs that look alike come from different tables or passages of the source.

One data set deals with MDA-MB-231. Kind of data set: Growth inhibition assay. Type of data set: cell-based. The settings on record: Homo sapiens, MDA-MB-231; read-out: MDA-MB-231 GI50 (μM) Mean ± S.E. On the procedure: (§1) Cells were seeded in 96-well plastic plates and exposed to MPT0L056 for 48 hours. Cell viability was assessed using the 3-(4,5-dimethylthiazol-2-yl)-2,5-diphenyltetrazolium bromide assay. Growth inhibition was expressed as the percentage of surviving cells in drug-treated versus DMSO-treated control cells.
(§2) The compounds of the invention were subjected to growth inhibition assay.

In a further data set the test system is HCT-116. Kind of data set: Growth inhibition assay. The settings on record: Homo sapiens, HCT-116; read-out: HCT-116 GI50 (μM) Mean ± S.E. Type of data set: cell-based. The method, then: as §1, §2
The subject of another data set is Hep 3B. Kind of data set: Growth inhibition assay. Type of data set: cell-based. To be noted: Homo sapiens, Hep3B; read-out: Hep3B GI50 (μM) Mean ± S.E. The method, then: as §1, §2
In a further data set the test system is HL-60. In words: Growth inhibition assay. To be noted: HL-60; for IC50: Homo sapiens, read-out: HL-60 IC50 (μM) Mean ± S.E. Type of data set: cell-based. The method, then: as §1, §2
The test system of data set [1] is HCT116 human colorectal adenocarcinoma. On the procedure: MPT0L056 was used to evaluate for activity against the HCT116 human colorectal adenocarcinoma.
However, MPT0E028 was administered orally (p.o.) in 1.0% CMC and 0.5% Tween 80 and given dose at 25 mg/kg daily to end schedule.
Each animal was euthanized when the tumors reached the predetermined endpoint size of 1,000 mm^3. The time to endpoint (TTE) for each mouse was calculated by the following equation:
[formula] where TTE is expressed in days, endpoint volume is in mm^3, b is the intercept, and m is the slope of the line obtained by linear regression of a log-transformed tumor growth data set. The data set is comprised of the first observation that exceeded the study endpoint volume and the three consecutive observations that immediately preceded the attainment of the endpoint volume. The calculated TTE is usually less than the day on which an animal is euthanized for tumor size. […] An animal classified as having died from treatment-related (TR) causes or non-treatment-related metastasis (NTRm) causes was assigned a TTE value equal to the day of death. An animal classified as having died from non-treatment-related (NTR) causes was excluded from TTE calculations.
Treatment efficacy was determined from tumor growth delay (TGD), which is defined as the increase in the median TTE for a treatment group compared to the control group: TGD=T−C, expressed in days, or as a percentage of the median TTE of the control group:
[formula] where: • T=median TTE for a treatment group, • C=median TTE for control Group 1.
Treatment efficacy was also determined from the tumor volumes of animals remaining in the study on the last day, and from the number of regression responses. The MTV(n) is defined as the median tumor volume on D59 in the number of animals remaining, n, whose tumors have not attained the endpoint volume.
Treatment may cause a partial regression (PR) or a complete regression (CR) of the tumor in an animal. […] An animal with a CR at the termination of a study is additionally classified as a tumor-free survivor (TFS).
Animals were weighed daily for the first five days, then twice weekly until the completion of the study. The mice were examined frequently for overt signs of any adverse, drug-related side effects. Acceptable toxicity for the MTD of cancer drugs is defined as a group mean BW loss of 20% or less during the test, and not more than one TR death among ten animals. A death is classified as TR if there is evidence of treatment side effects from clinical signs and/or necropsy or from unknown causes during dosing period or within 10 days of the last dose. A death is classified as NTR if there is no evidence that the death was related to treatment side effects.
The logrank test was used to determine the statistical significance of the difference between the TTE values of two groups, except any NTR deaths. Statistical and graphical analyses were performed with Prism 3.03 (GraphPad) for Windows. The two-tailed statistical analyses were conducted at P=0.05. Kaplan-Meier plots show the percentage of animals remaining in the study versus time. The Kaplan-Meier plots use the same data set as the log rank test. The tumor growth curves show the group median tumor volume, on a log scale as a function of time.

[2] abbreviates: Group 1 vs 2: MPT0E028 25 mg/kg.
[3] abbreviates: Group 2: MPT0E028 25 mg/kg po qd to endpoint.

With `O=C(Nc1ccc(F)cc1)c1ccc(CNC2=C(Cl)C(=O)c3ccccc3C2=O)cc1` [MPT0L082], the GI50 in the data set with MDA-MB-231, in the data set on HCT-116 and with Hep 3B was 10 to 30 µM throughout. Besides, the IC50 in the data set on HL-60 is 10 to 30 µM.
In the case of `Cc1cc(NC(=O)c2ccc(CNC3=C(Cl)C(=O)c4ccccc4C3=O)cc2)c2ccccc2n1` [MPT0L112, 4-((3-chloro-1,4-dioxo-1,4-dihydronaphthalen-2-ylamino)methyl)-N-(2-methylquinolin-4-yl)benzamide], the results for the GI50 in the data set with MDA-MB-231, in the data set with HCT-116 and in the data set with Hep 3B were 8.12 ± 1.32 µM, 10 to 30 µM and 10 to 30 µM, respectively. Further, the IC50 in the data set on HL-60 turned out to be 2.68 ± 0.03 µM.
For the compound `O=C(Nc1cnc2ccccc2c1)c1ccc(CNC2=C(Cl)C(=O)c3ccccc3C2=O)cc1` [MPT0L110, 4-((3-chloro-1,4-dioxo-1,4-dihydronaphthalen-2-ylamino)methyl)-N-(quinolin-3-yl)benzamide], the GI50 in the data set on MDA-MB-231, in the data set with HCT-116 and in the data set with Hep 3B was 10 to 30 µM each time. Also, the IC50 in the data set with HL-60 came out at 7.93 ± 1.14 µM.
For the compound `O=C(Nc1ccc2ncccc2c1)c1ccc(CNC2=C(Cl)C(=O)c3ccccc3C2=O)cc1` [MPT0L108, 4-((3-chloro-1,4-dioxo-1,4-dihydronaphthalen-2-ylamino)methyl)-N-(quinolin-6-yl)benzamide], the GI50 with MDA-MB-231 is 10 to 30 µM; in the data set with HCT-116, 6.82 ± 0.35 µM; in the data set with Hep 3B it was 10 to 30 µM. In the data set with HL-60, the IC50 was 8.09 ± 0.57 µM.
Regarding `O=C(Nc1ccc2[nH]ccc2c1)c1ccc(CNC2=C(Cl)C(=O)c3ccccc3C2=O)cc1` [MPT0L113, 4-((3-chloro-1,4-dioxo-1,4-dihydronaphthalen-2-ylamino)methyl)-N-(1H-indol-5-yl)benzamide], the GI50 in the data set with MDA-MB-231, in the data set with HCT-116 and in the data set on Hep 3B was 10 to 30 µM each time. The IC50 in the data set on HL-60 turned out to be 8.92 ± 0.39 µM.
For the compound `O=C(Nc1nc2ccccc2[nH]1)c1ccc(CNC2=C(Cl)C(=O)c3ccccc3C2=O)cc1` [MPT0L086, N-(1H-benzo[d]imidazol-2-yl)-4-(((3-chloro-1,4-dioxo-1,4-dihydronaphthalen-2-yl)amino)methyl)benzamide], the GI50 with MDA-MB-231 is 8.88 ± 1.04 µM; in the data set with HCT-116, 10 to 30 µM; in the data set with Hep 3B, 10 to 30 µM. The IC50 with HL-60 is 10 to 30 µM.
In the case of `O=C(Nc1ccccc1)c1ccc(CNC2=C(Cl)C(=O)c3ccccc3C2=O)cc1` [MPT0L083, 4-(((3-chloro-1,4-dioxo-1,4-dihydronaphthalen-2-yl)amino)methyl)-N-phenylbenzamide], the concentration for 50% growth inhibition (GI50) in the data set on MDA-MB-231, in the data set on HCT-116 and in the data set with Hep 3B was 10 to 30 µM in each case. Also, in the data set on HL-60, the IC50 lay within 10 to 30 µM.
Consider `O=C(Nc1nccs1)c1ccc(CNC2=C(Cl)C(=O)c3ccccc3C2=O)cc1` [MPT0L085, 4-(((3-chloro-1,4-dioxo-1,4-dihydronaphthalen-2-yl)amino)methyl)-N-(thiazol-2-yl)benzamide], for which the GI50 in the data set with MDA-MB-231, with HCT-116 and in the data set on Hep 3B was 10 to 30 µM throughout. In the data set on HL-60, the IC50 was found to be 8.53 ± 0.55 µM.
`O=C(Nc1ccccn1)c1ccc(CNC2=C(Cl)C(=O)c3ccccc3C2=O)cc1` [MPT0L018, 4-(((3-chloro-1,4-dioxo-1,4-dihydronaphthalen-2-yl)amino)methyl)-N-(pyridin-2-yl)benzamide]: the GI50 in the data set on MDA-MB-231, in the data set on HCT-116 and in the data set with Hep 3B was 10 to 30 µM each time. In addition, the IC50 in the data set with HL-60 was in the range of 10 to 30 µM.
Take `O=C(Nc1ccc2[nH]ncc2c1)c1ccc(CNC2=C(Cl)C(=O)c3ccccc3C2=O)cc1` [MPT0L097, 4-((3-chloro-1,4-dioxo-1,4-dihydronaphthalen-2-ylamino)methyl)-N-(1H-indazol-5-yl)benzamide]: the GI50 in the data set with MDA-MB-231, in the data set with HCT-116 and with Hep 3B was 10 to 30 µM in each case. In addition, in the data set with HL-60, the IC50 fell in the range of 10 to 30 µM.
Take `O=C(Nc1ccc2cn[nH]c2c1)c1ccc(CNC2=C(Cl)C(=O)c3ccccc3C2=O)cc1` [MPT0L118, 4-((3-chloro-1,4-dioxo-1,4-dihydronaphthalen-2-ylamino)methyl)-N-(1H-indazol-6-yl)benzamide]: the GI50 in the data set on MDA-MB-231, with HCT-116 and in the data set with Hep 3B was 10 to 30 µM each time. In addition, the IC50 with HL-60 worked out at 7.39 ± 3.49 µM.
For `O=C(Nc1cccc2cccnc12)c1ccc(CNC2=C(Cl)C(=O)c3ccccc3C2=O)cc1` [MPT0L109, 4-((3-chloro-1,4-dioxo-1,4-dihydronaphthalen-2-ylamino)methyl)-N-(quinolin-8-yl)benzamide], the GI50 in the data set with MDA-MB-231, with HCT-116 and in the data set with Hep 3B was 10 to 30 µM throughout. The IC50 in the data set on HL-60 was 6.43 ± 2.44 µM.
As for `Nc1ccn(C(=O)c2ccc(CNC3=C(Cl)C(=O)c4ccccc4C3=O)cc2)n1` [MPT0L094, 2-(4-(3-amino-1H-pyrazole-1-carbonyl)benzylamino)-3-chloronaphthalene-1,4-dione], the GI50 in the data set on MDA-MB-231, in the data set on HCT-116 and in the data set with Hep 3B was 10 to 30 µM each time. Further, the “HL-60 IC50 (μM) Mean ± S.E.” value in the data set with HL-60 is on record as 110~30 μM.
Consider `O=C(Nc1ccncc1[N+](=O)[O-])c1ccc(CNC2=C(Cl)C(=O)c3ccccc3C2=O)cc1` [MPT0L103, 4-((3-chloro-1,4-dioxo-1,4-dihydronaphthalen-2-ylamino)methyl)-N-(3-nitropyridin-4-yl)benzamide], for which the GI50 in the data set on MDA-MB-231 is 10 to 30 µM; in the data set with HCT-116, 6.12 ± 1.17 µM; in the data set on Hep 3B it was 10 to 30 µM. In addition, in the data set on HL-60, the IC50 is 5.42 ± 0.7 µM.
Turning to `Cn1ccc2c(NC(=O)c3ccc(CNC4=C(Cl)C(=O)c5ccccc5C4=O)cc3)ncnc21` [MPT0L121, 4-((3-chloro-1,4-dioxo-1,4-dihydronaphthalen-2-ylamino)methyl)-N-(7-methyl-711-pyrrolo[2,3-d]pyrimidin-4-yl)benzamide], the GI50 in the data set on MDA-MB-231, in the data set with HCT-116 and with Hep 3B was 10 to 30 µM in each case. Moreover, the IC50 in the data set with HL-60 turned out to be 2.68 ± 0.17 µM.
Regarding `Cc1cc2cc(NC(=O)c3ccc(CNC4=C(Cl)C(=O)c5ccccc5C4=O)cc3)ccc2[nH]1` [MPT0L114, 4-((3-chloro-1,4-dioxo-1,4-dihydronaphthalen-2-ylamino)methyl)-N-(2-methyl-1H-indol-5-yl)benzamide], the GI50 with MDA-MB-231, in the data set on HCT-116 and in the data set on Hep 3B was 10 to 30 µM in each case. The IC50 in the data set with HL-60 is 10 to 30 µM.
On to `O=C(/C=C/c1ccc2c(c1)CCN2S(=O)(=O)c1ccccc1)NO` [MPT0E028, reference compound], for which, in data set [1] (setting [2]), the “Hazard Ratio” value is listed as 3.677, the “Median survival” value was 40.5 and the “Median survival Ratio” value is on record as 0.5605. Besides, in data set [1] (Group 1 vs 7: 100/25 mg/kg), the “Hazard Ratio” value is recorded as 1.43, the “Median survival” value is 33.95 and the “Median survival Ratio” value amounted to 0.6686. In data set [1] (Group 1 vs 8: 50/25 mg/kg), the “Hazard Ratio” value is 3.433, the “Median survival” value was 45.3 and the “Median survival Ratio” value amounted to 0.5011. In data set [1] (setting [3]), the “MTV (n) Day 59” value came out at 454 mm^3, the “Median TTE” value is 40.5 days, the T-C stood at 17.8 days and the “antitumor activity (logrank analysis)” value is reported as “produced significant antitumor activity”. Moreover, in data set [1] (Group 2: MPT0E028 25 mg/kg po qd to endpoint, 25 mg/kg), the “% TGD” value amounted to 78%. In data set [1] (Group 2: MPT0E028 25 mg/kg po qd to endpoint, compared to Group 1), the “Logrank Significance” value is “* (* = P < 0.05)”. In data set [1] (mouse, in vivo, po, 25 mg/kg), the “Day of Max % BW Loss” value worked out at 5 days, the “Max % BW Loss” value is reported as −7.7%, the “No. of NTR” value turned out to be 0 and the “No. of TR” value came out at 0.

As a reminder, the GI50 is the concentration that inhibits growth by half. The IC50 is the point on the concentration scale where inhibition reaches its midpoint.

The values above are taken from patent publication US11919858B2, “Aminonapthoquinone compounds and pharmaceutical composition for blocking ubiquitination-proteasome system in diseases” (Calgent Biotechnology Co., Ltd., priority 2015, dated 2024).
